Results taken from patent publication US20100168146A1, “Composition Comprising (R)-Spiro[L-Azabicyclo[2.2.2]Octane-3,2'(3'H)-Furo[2,3-B]Pyridine (AZD0328) and its Use in the Treatment of Alzheimer's Disease, ADHD or Cognitive Dysfunction” (priority 2008, published 2010).

Columns and labels:
[1] = test system: FFX rats; assay: Hippocampal LTP in vivo in FFX rats; design: species or system rat; settings: 0.3 mg/kg
Experimental: AZD0328 reversed a deficit in hippocampal long-term potentiation (LTP) in FFX Sprague Dawley rats (Table 2). […] 0.3 mg/kg of AZD0328 was ineffective in this test.

[2] = PK/TK multiple dose studies; type: in vivo; settings: rabbit 2F, DMB15, subcutaneous 1.15 mg/kg (3 μmol/kg), day 18
Description: This section provides a summary of the pharmacokinetic and metabolism properties of AZD0328 derived from in vivo studies. […] The derived PK/TK parameters from these studies are presented in Table 4 for single dose studies (DMR4, 0619LR, 20030191PCR, DM016, DMB10, DMW12, 50190, 0190DD and 03.330/1), and are presented in Table 5 multiple dose PK/TK studies (DMR4, 0612AR, DMB15, 50190, 0190DD and 0295AD).

Structure (SMILES): c1cnc2c(c1)C[C@@]1(CN3CCC1CC3)O2 [AZD0328, (R)-Spiro[1-azabicyclo[2.2.2]octane-3,2′(3′H)-furo[2,3-b]pyridine]]
- Hippocampal LTP [1]: ineffective
- Tmax [2]: 18 to 60 min
